The values below come from paper PMC11946789, “Two Amino Acid Substitutions Improve the Pharmacological Profile of the Snake Venom Peptide Mambalgin” (Toxins, 2025).

This assay deals with T1, homomeric rat ASIC1b (rASIC1b) (Rattus norvegicus, UniProt P55926).
T1 construct: expressed in transfected cells; host or cells: Xenopus laevis oocytes, mRNA microinjected
T1 sequence (P55926 1-559 isoform P55926-3): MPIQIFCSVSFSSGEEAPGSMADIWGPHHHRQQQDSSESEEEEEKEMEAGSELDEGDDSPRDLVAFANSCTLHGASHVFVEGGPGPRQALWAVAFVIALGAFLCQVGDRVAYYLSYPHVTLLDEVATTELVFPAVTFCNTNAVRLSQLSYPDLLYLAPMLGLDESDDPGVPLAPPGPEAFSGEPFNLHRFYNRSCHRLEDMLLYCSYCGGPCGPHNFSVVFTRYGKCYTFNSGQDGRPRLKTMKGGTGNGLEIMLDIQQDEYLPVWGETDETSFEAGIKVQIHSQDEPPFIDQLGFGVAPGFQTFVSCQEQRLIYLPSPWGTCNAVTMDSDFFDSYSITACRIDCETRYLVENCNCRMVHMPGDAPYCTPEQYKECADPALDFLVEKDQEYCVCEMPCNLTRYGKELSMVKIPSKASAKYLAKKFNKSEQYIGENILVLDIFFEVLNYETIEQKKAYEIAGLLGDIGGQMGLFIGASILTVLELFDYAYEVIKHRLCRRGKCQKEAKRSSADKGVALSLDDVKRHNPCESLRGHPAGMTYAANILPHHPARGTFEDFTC
In words: TEVC recordings, homomeric rASIC1b. The format is cell-based. An excerpt:
Figure 4 The inhibitory effect of Mamb-AL on other ASIC1-containing channels exceeds that of Mamb. (A,C) Representative current traces showing the effects of various concentrations of Mamb (left panels) and Mamb-AL (right panels) on homomeric rat ASIC1b (rASIC1b) (A) and heteromeric rat ASIC1a/3 (rASIC1a/3) channels (C). Currents were evoked by a pH 5.5 stimulus following a conditioning pH of 7.4, with peptides applied for 30 s prior to the pH stimulus. (B) Dose–response curves for the inhibitory effects of Mamb and Mamb-AL on rASIC1b. Each data point represents measurements from 5 to 7 cells. (D) Bar graph quantifying the inhibitory effects of Mamb and Mamb-AL on rASIC1a/3, shown as a percentage of the corresponding control currents (n = 5). Data are presented as mean ± SEM; * p< 0.05, unpaired t-test. […] Data are shown as mean ± SEM; ns indicates no significant difference vs. control (dotted horizontal line), paired t-test. […]
Whole-cell ASIC currents were measured using the two-electrode voltage clamp (TEVC) method with a GeneClamp 500 amplifier (Axon Instruments, Union City, NJ, USA). […]
Electrophysiological and behavioral data were analyzed using OriginPro 8.6.0 (OriginLab, Washington, DC, USA). […] Statistical significance between the Mamb and Mamb-AL groups was determined using an unpaired t-test. […]

“Also recorded” adds a separate entry of the source. Bridges are numbered along the chain shown (N, C = ends). Where no end group is shown, it is not given here.

With “LKCYQHGKVVTCHRDAKFCYHNTGLPFRNLKLILQGCSSSCSETENNKCCSTDRCNK (disulfide 3-19, 12-37, 41-49, 50-55 (inferred)) [Mamb-AL]”, for the setting “compared with Mamb”, the “greater potency / inhibition of rASIC1b” value is listed as “five-fold; also recorded: five times greater potency”. Besides, the midpoint of inhibition (pH stimulus 5.5, conditioning pH 7.4, peptide applied 30 s before stimulus, Xenopus laevis oocytes, mean ± SEM, 5 to 7 cells), the IC50, lay at 22 ± 1 nM.
